Test results: US6486162B2, “2-{3-[4-(2-t-butyl-6-trifluoromethyl-4-pyrimidinyl)-1- piperazinyl] propylthio}-4-pyrimidinol fumarate” (Abbott Laboratories, priority 1997, dated 2002)
Blank lines part the entries; values can stand above or below the compound they belong to.

Tests used:
Format in all cases: physicochemical
[1] = evaluation of various acid addition salts
Source text: Evaluation of various acid addition salts of 2-{3-[4-(2-t-butyl-6-trifluoromethyl-4-pyrimidyl)-1-piperazinyl)propylthio}-4-5 pyrimidinol

[2] = solubility tests of the substances
Source text: It has a selectivity, Ki D2/Ki D3of 120 (cf. WO 96/02519). The compound is therefore useful for treating disorders which respond to dopamine D3ligands, eg. for treating disorders of the central nervous system, in particular schizophrenia, depressions, neuroses and psychoses. It is additionally useful for treating sleep disturbances and nausea and as antihistamine.
(§1) Furthermore, the fumarate is more soluble in polar solvents such as C1-C6-alkanols than the free base. Because of the altered solubility characteristics, it can also be purified more simply while avoiding physiologically unacceptable solvents.

[3] = stability against oxidative processes; conditions: compared to the free base
Source text: as §1

Compound: Hydrochloride
- Observation: stability of the compound in the acidic medium ([1]; aqueous solution of the salt is highly acidic): acidic; the compound is instable in

- solubility in water ([2]; compared to that of the free base): substantially higher solubility
- solubility in polar solvents such as C1-C6-alkanols ([2]; compared to the free base): more soluble
- stability against oxidative processes [3]: higher stability
- Observation: hygroscopicity [1]: non-hygroscopic salt with definite
Compound: CC(C)(C)c1nc(N2CCN(CCCSc3nccc(O)n3)CC2)cc(C(F)(F)F)n1.O=C(O)/C=C/C(=O)O [Fumarate, fumaric acid salt of 2-{3-[4-(2-t-butyl-6-trifluoromethyl-4-pyrimidinyl)-1-piperazinyl]propylthio}-4-pyrimidinol]

Compound: Methane sulfonate
- Observation: crystals are deliquescent and dissolve within [1]: deliquescent and dissolve within 3 h
